Reference: ChEMBL document CHEMBL5528015, “Structure-based design of SARS-CoV-2 papain-like protease inhibitors” (Eur J Med Chem, 2024)
Activity calls are given as the source filed them. The rule behind the calls is not given here.

Key:
[1] = target: Replicase polyprotein 1ab (Severe acute respiratory syndrome coronavirus 2, UniProt P0DTD1); experiment: biochemical
[2] = Metabolic stability in mouse liver microsomes assessed as intrinsic clearance at 1 uM measured upto 60 mins in presence of NADPH regenerating system by LC-MS/MS analysis; type: ADME, Microsome; details: read-out: CLH
[3] = mouse, microsomes, 1 h, 1 µM
[4] = Cytotoxicity against African green monkey Vero E6 cells incubated for 48 hrs by neutral red uptake assay; type: toxicity, cell-based, Vero C1008; details: chlorocebus sabaeus
in vitro = details: mouse, liver microsomes
[5] = target: Replicase polyprotein 1ab (Severe acute respiratory syndrome coronavirus 2) (UniProt P0DTD1); details: BetaCoV/Wuhan/WIV04/2019, dose 40.0 µM, time 30.0 min

| Structure (SMILES) | IC50 [1] | CC50 at 48 h [4] | other results |
| --- | --- | --- | --- |
| C[C@H](c1cccc(-c2cccs2)c1)N(C)Cc1c[nH]c2cc(F)ccc12 | 2.34 µM | – | – |
| Cc1ccc(NC2CNC2)cc1CN(C)[C@H](C)c1cccc2ccccc12 | – | 13.7 µM | microsomal CLint at 1 µM [2]: 13.8 µL/min/mg; t1/2 [3]: 1.673 h |
| Cc1ccc(OCCN)cc1C(=O)N[C@H](C)c1cccc2ccccc12 | – | – | microsomal CLint at 1 µM [2]: < 9.6 µL/min/mg; t1/2 [3]: > 2.42 h |
| C[C@H](c1cccc(-c2cccs2)c1)N(C)Cc1ccc(O)cc1O | 5.03 µM | – | – |
| Cc1ccc(OCCN)cc1C(=O)N[C@H](C)c1cccc(-c2ccn[nH]2)c1 | 1.16 µM | – | – |
| Cc1ccc(OCCN)cc1C(=O)N[C@H](C)c1cccc(-c2ccc(O)cc2)c1 | – | 45.2 µM | microsomal CLint at 1 µM [2]: 24 µL/min/mg; t1/2 [3]: 0.962 h |
| C[C@H](c1cccc2ccccc12)N(C)Cc1c[nH]c2ccccc12 | – | 24.7 µM | – |
| Cc1ccc(OCCN)cc1C(=O)N[C@H](C)c1cccc(-c2ccc(C#N)s2)c1 | – | 15 µM | – |
| Cc1ccc(OCCN)cc1C(=O)N[C@H](C)c1cccc(-c2ccc(CNC3CC3)s2)c1 | 0.94 µM | – | – |
| Cc1ccc(OCCN)cc1C(=O)N[C@H](C)c1cccc(-c2cnn(C(F)F)c2)c1 | 1.14 µM | – | – |
| Cc1ccc(OCCN)cc1C(=O)N[C@H](C)c1cccc(-c2ccnn2C)c1 | 2.78 µM | – | – |
| Cc1ccc(OCCN)cc1C(=O)N[C@H](C)c1cccc(-c2ccn(C)c2C)c1 | 3.35 µM | – | – |
| Cc1ccc(OCCN)cc1C(=O)N[C@H](C)c1cccc(-c2ccc3c(c2)OCCO3)c1 | 0.97 µM | – | – |
| C[C@H](c1cccc(-c2ccc(CN3CCCC3)s2)c1)N(C)Cc1ccc2[nH]ncc2c1 | 7.09 µM | – | – |
| Cc1ccc(OCCN)cc1C(=O)N[C@H](C)c1cccc(-c2cnc(N(C)C)nc2)c1 | > 20 µM | – | – |
| Cc1ccc(OCCN)cc1C(=O)N[C@H](C)c1cccc(-c2cnn(C)c2)c1 | 0.96 µM | – | – |
| C[C@H](c1cccc2ccccc12)N(C)Cc1ccc(O)cc1 | – | 23.7 µM | microsomal CLint at 1 µM [2]: 779 µL/min/mg; half-life at 1 h, 1 µM (in vitro): 1.8 min |
| C[C@H](c1cccc2ccccc12)N(C)Cc1c[nH]c2ccc(F)cc12 | – | 32.5 µM | – |
| Cc1ccc(OCCN)cc1C(=O)N[C@H](C)c1cccc(-c2cccs2)c1 | – | 15.2 µM | microsomal CLint at 1 µM [2]: < 9.6 µL/min/mg; t1/2 [3]: > 2.42 h |
| Cc1ccc(OCCN)cc1C(=O)N[C@H](C)c1cccc(-c2cnn(Cc3ccccc3)c2)c1 | 1.03 µM | – | – |
| Cc1ccc(OCCN)cc1C(=O)N[C@H](C)c1cccc(-c2ccc3c(c2)CCO3)c1 | 1.08 µM | – | – |

| Structure (SMILES) | IC50 [1] | CC50 at 48 h [4] | other results |
| --- | --- | --- | --- |
| Cc1ccc(OCCN)cc1C(=O)N[C@H](C)c1cccc(-c2ccc(F)cc2F)c1 | 1.54 µM | – | – |
| COc1cc([N+](=O)[O-])ccc1CN(C)[C@H](C)c1cccc2ccccc12 | – | > 100 µM | Activity [5]: Active |
| Cc1ccc(OCCN)cc1C(=O)N[C@H](C)c1cccc(-c2ccsc2)c1 | – | > 30 µM | microsomal CLint at 1 µM [2]: 11.8 µL/min/mg; t1/2 [3]: 1.958 h |
| Cc1ccc(OCCN)cc1C(=O)N[C@H](C)c1cccc(-c2ccc(C#N)cc2)c1 | 0.89 µM | – | – |
| Cc1ccc(OCCN)cc1C(=O)N[C@H](C)c1cccc(-c2cn[nH]c2)c1 | 1.49 µM | – | – |
| COc1cc(O)ccc1CN(C)[C@@H](C)c1cccc(-c2ccc(CN3CCCC3)s2)c1 | 3 µM | – | – |
| C[C@H](c1cccc2ccccc12)N(C)Cc1ccc2cn[nH]c2c1 | – | 28.3 µM | – |
| C[C@H](c1cccc2ccccc12)N(C)Cc1ccc2[nH]ncc2c1 | – | 35.5 µM | – |
| C[C@H](c1cccc2ccccc12)N(C)Cc1ccc(O)cc1O | – | 31.5 µM | Activity [5]: Active |
| COCCn1cc(-c2cccc([C@@H](C)NC(=O)c3cc(OCCN)ccc3C)c2)cn1 | 1.51 µM | – | – |
| Cc1ccc(O)cc1CN(C)[C@H](C)c1cccc2ccccc12 | – | 14.4 µM | microsomal CLint at 1 µM [2]: 2490 µL/min/mg |
| C[C@H](c1cccc(-c2cccs2)c1)N(C)Cc1c[nH]c2ccc(F)cc12 | 2.66 µM | – | – |
| Cc1ccc(OCCN)cc1C(=O)N[C@H](C)c1cccc(-c2ccccc2O)c1 | 2.25 µM | – | – |
| C[C@H](c1cccc(-c2ccc(CN3CCCC3)s2)c1)N(C)Cc1cccc2[nH]ccc12 | 3.39 µM | – | – |
| C[C@H](c1cccc(-c2cccs2)c1)N(C)Cc1ccc2cn[nH]c2c1 | 2.36 µM | – | – |
| Cc1ccc(OCCN)cc1C(=O)N[C@H](C)c1cccc(-c2ccc(F)cc2)c1 | 1.22 µM | – | – |
| Cc1ccc(OCCN)cc1C(=O)N[C@H](C)c1cccc(-c2c(C)noc2C)c1 | 1.48 µM | – | – |
| Cc1ccc(OCCN)cc1C(=O)N[C@H](C)c1cccc(-c2ccoc2)c1 | – | 103 µM | microsomal CLint at 1 µM [2]: 25.7 µL/min/mg; t1/2 [3]: 0.897 h; Activity [5]: Active |
| C[C@H](c1cccc2ccccc12)N(C)Cc1c[nH]c2cc(F)ccc12 | – | 31.8 µM | – |
| Cc1ccc(OCCN)cc1C(=O)N[C@H](C)c1cccc(-c2c[nH]nc2C)c1 | 1.96 µM | – | – |
